Test results from patent US9949479B2 (priority 2015, dated 2018).
Converted amounts (≈) assume the structure as drawn. Where two headings read alike, the source gives them in different places.

Tests used:
Fusarium graminearum = assay: microbe, parasite or virus in culture; type: cell-based; conditions: sensitive strains, Fusarium graminearum (both types of fusaria)
Fusarium asiaticum = assay: microbe, parasite or virus in culture; type: cell-based
wheat scab [1] = type: in vivo, Fusarium spp.
[2] = tested on: DON toxin synthesis capability of thalli; set-up: species or system Fusarium spp.; conditions: in vivo
[3] = type: in vivo, wheat
wheat scab [4] = type: in vivo, Fusarium spp.; conditions: sprayed twice; g ai. agent/mu, Jinggangmycin+Metconazole by row: r16 1+15; r17 3+10; r18 5+5; r19 5+10; r20 5+15; r21 10+3; r22 10+10; r23 10+15; r24 50+3; r25 50+10; r26 50+15; r27 100+5; r28 100+10; Jinggangmycin alone r29 100; r30 50; r31 10; r32 5; r33 3; r34 1; Metconazole alone r35 15; r36 10; r37 5; r38 3; r39 Carbendazim 40
leaf blight = type: in vivo; conditions: dose as in E145
powdery mildew = type: in vivo; conditions: dose as in E145
rust = type: in vivo; conditions: dose as in E145
[5] = type: in vivo, wheat; conditions: dose as in E145
[6] = set-up: species or system wheat; conditions: in vivo
wheat scab [7] = type: in vivo, Fusarium spp.; conditions: Serial 29: Carbendazim 50 g a.i. (control agent)
[8] = type: in vivo, wheat; conditions: Serial 29: Carbendazim 50 g a.i. (control agent)

SMILES: COC(=O)Nc1nc2ccccc2[nH]1 [Carbendazim, carbendazim]
- ED50 (Fusarium graminearum): 0.45 µg/mL (≈ 2.35 µM)
- ED50 (Fusarium asiaticum): 0.45 µg/mL (≈ 2.35 µM)
- Disease Index Prevention Effect % Actual Prevention Effect (wheat scab [1]; sprayed twice, g ai. agent/mu, Jinggangmycin+Metconazole by row: r12 0.5+25, r13 1+20, r14 5+5, r15 5+10, r16 5+15, r17 10+3, r18 10+5, r19 10+10, r20 10+15, r21 50+3, r22 50+5, r23 50+10, r24 50+15, r25 100+3, r26 100+5, r27 100+10, r28 100+15, r29 150+3, Jinggangmycin alone r30 0.5, r31 1, r32 5, r33 10, r34 50, r35 100, r36 150, Metconazole alone r37 3, r38 5, r39 10, r40 15, r41 20, r42 25, r4): 67.5%
- prevention effect on head blight (wheat scab [1]; used for treatment alone): 67.5%
- DON Synthesis Capability [2]: 28.94
- Grain Toxin Content ([3]; dose by row as in E139): 4.4 μg of toxin/g of kernels
- decrease of toxin contamination level in comparison with the blank control ([3]; used for treatment alone): 58.5%
- toxin contamination level of grains ([3]; used for treatment alone): 4.4 mg/kg of grains
- DON Contamination Reduction Rate % ([3]; vs blank control, dose by row as in E139): 58.5%
- Disease Index Prevention Effect % Head Blight (wheat scab [4]): 38.6%
- Disease Index Prevention Effect % Leaf Blight (leaf blight): 48.5%
- Disease Index Prevention Effect % Powdery Mildew (powdery mildew): 52.6%
- Disease Index Prevention Effect % Rust (rust): 61.2%
- Grain Toxin Content [5]: 5.67 μg of toxin/g of kernels
- DON Reduction Percentage (%) ([5]; vs control): 55.0%
- Thousand Kernel Weight [6]: 41.6 g
- Disease Index Prevention Effect % Head Blight (wheat scab [7]): 49.04%
- Grain Toxin Content (mg of DON/Kg of grain) [8]: 4.35 mg of DON/Kg of grain
- Rate of Decrease in Toxin Content in Grains (%) [8]: 32.7%

SMILES: CCOC(=O)C(C#N)=C(N)c1ccccc1 [phenamacril]
- ED50 (Fusarium graminearum): 0.165 µg/mL (≈ 0.763 µM)
- ED50 (Fusarium asiaticum; sensitive strains, Fusarium asiaticum (both types of fusaria)): 0.165 µg/mL (≈ 0.763 µM)
